Tests used:
Experiment in all cases: relative viability (nuclei count vs DMSO), 5 days (fraction); higher = more cells survive
[1] = compound: CN(C)C/C=C/C(=O)Nc1cc2c(Nc3ccc(F)c(Cl)c3)ncnc2cc1O[C@H]1CCOC1 [Afatinib] + CC(=O)c1c(C)c2cnc(Nc3ccc(N4CCNCC4)cn3)nc2n(C2CCCC2)c1=O [Palbociclib] (partner 0.5 µM)
Summary of the method: (§1)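 The day after seeding in 1536-well plates, lung cancer cell lines were treated by pin tool with a single drug, or with a fixed anchor-drug dose together with five library-drug doses (not always all listed) in √10 steps. After 5 days, a combined fix-and-stain solution (final 0.05% Triton X-100, 1% formaldehyde, 1 ug/ml Hoechst) was added. Nuclei counted on 4× images gave relative viability as treated counts over vehicle counts, reported as the median of duplicate plates.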

[2] = compound: CN(C)C/C=C/C(=O)Nc1cc2c(Nc3ccc(F)c(Cl)c3)ncnc2cc1O[C@H]1CCOC1 [Afatinib] + O=C(CCCCCCC(=O)Nc1ccccc1)NO [Vorinostat] (partner 1 µM)
Summary of the method: as §1

[3] = compound: CN(C)C/C=C/C(=O)Nc1cc2c(Nc3ccc(F)c(Cl)c3)ncnc2cc1O[C@H]1CCOC1 [Afatinib] + C[C@@H](Oc1cc(-c2cnn(C3CCNCC3)c2)cnc1N)c1c(Cl)ccc(F)c1Cl [Crizotinib] (partner 1 µM)
Summary of the method: as §1

[4] = compound: CN(C)C/C=C/C(=O)Nc1cc2c(Nc3ccc(F)c(Cl)c3)ncnc2cc1O[C@H]1CCOC1 [Afatinib] + NC(=O)Nc1cc(-c2cccc(F)c2)sc1C(=O)N[C@H]1CCCNC1 [AZD7762] (partner 0.2 µM)
Summary of the method: as §1

Cell Line	relative viability ([1]; first compound 0.005 µM)	relative viability ([1]; first compound 0.01581 µM)	relative viability ([1]; first compound 0.05 µM)	relative viability ([1]; first compound 0.1581 µM)	relative viability ([1]; first compound 0.5 µM)	relative viability ([2]; first compound 0.005 µM)	relative viability ([2]; first compound 0.01581 µM)	relative viability ([2]; first compound 0.05 µM)	relative viability ([2]; first compound 0.1581 µM)	relative viability ([2]; first compound 0.5 µM)	relative viability ([3]; first compound 0.005 µM)	relative viability ([3]; first compound 0.01581 µM)	relative viability ([3]; first compound 0.05 µM)	relative viability ([3]; first compound 0.1581 µM)	relative viability ([3]; first compound 0.5 µM)	relative viability ([4]; first compound 0.005 µM)	relative viability ([4]; first compound 0.01581 µM)	relative viability ([4]; first compound 0.05 µM)	relative viability ([4]; first compound 0.1581 µM)	relative viability ([4]; first compound 0.5 µM)
NCI-H650	0.343	0.34	0.395	0.331	0.336	0.469	0.395	0.551	0.515	0.316	0.856	0.674	0.72	1.01	0.683	0.832	0.886	1.03	1.04	0.904
NCI-H727	0.586	0.637	0.6	0.506	0.544	1.08	0.953	1	0.906	0.956	0.804	0.802	0.53	0.541	0.583	0.574	0.467	0.527	0.515	0.543
NCI-H838	0.216	0.227	0.242	0.214	0.233	0.695	0.74	0.74	0.639	0.801	0.782	0.87	0.901	0.791	0.937	0.801	0.946	0.915	0.968	0.953
NCI-H1355	0.397	0.338	0.351	0.274	0.315	0.597	0.585	0.545	0.553	0.552	1.16	0.983	1.01	0.792	0.816	0.71	0.765	0.779	0.645	0.748
NCI-H1437	0.305	0.294	0.281	0.31	0.341	0.841	0.831	0.967	0.776	0.908	0.985	1.01	0.988	0.881	0.966	1.11	1.05	1.19	1.09	1.2
NCI-H1651	0.561	0.508	0.501	0.495	0.459	0.628	0.521	0.512	0.575	0.539	0.911	0.85	0.817	0.855	0.82	0.396	0.361	0.424	0.421	0.451
NCI-H1666	0.656	0.617	0.645	0.673	0.688	1	1.03	1.03	0.811	0.712	0.879	0.885	0.661		0.676	0.824	0.776	0.824	0.608	0.76
NCI-H1734	0.369	0.34	0.298	0.339	0.319	0.795	0.826	0.874	0.779	0.831	0.82	0.687	0.652	0.568	0.642	0.389	0.602	0.58	0.498	0.471
NCI-H1755	0.463	0.438	0.441	0.456	0.433	0.9	0.935	0.789	0.79	0.727	0.894	0.869	0.848	0.852	0.868	0.359	0.562	0.528	0.398	0.417
NCI-H1915	0.564	0.539	0.526	0.506	0.491	0.525	0.518	0.497	0.476	0.464	1	0.963	0.872	0.957	0.894	0.67	0.708	0.685	0.723	0.682
NCI-H1944	0.287	0.33	0.272	0.206	0.237	0.514	0.562	0.42	0.413	0.406	1.08	0.989	0.883	0.596	0.709	0.297	0.496	0.413	0.343	0.404
NCI-H1975	0.72	0.469	0.472	0.253	0.21	0.711	0.667	0.59	0.357	0.26	1.14	1.07	1.01	0.45	0.307	0.867	0.676	0.538	0.43	0.312
NCI-H1993	0.532	0.571	0.539	0.538	0.577	0.662	0.437	0.731	0.466	0.541	0.647	0.732	0.656	0.76	0.771	0.548	0.521	0.544	0.432	0.416
NCI-H2085	0.445	0.448	0.42	0.36	0.419	0.746	0.684	0.66	0.623	0.682	0.925	0.657	0.763	0.66	0.778	0.753	0.957	0.897	0.636	0.753
NCI-H2087	0.232	0.185	0.226	0.253	0.191	0.658	0.625	0.968	0.91	0.592	0.985	0.933	0.93	0.845	1.02	1.15	1.45	1.27	1.31	1.21
NCI-H2126	0.342	0.338	0.364	0.342	0.314	0.732	0.683	0.617	0.43	0.481	1.09	0.989	1.02	0.884	0.79	1.02	1.02	0.822	0.776	0.793
NCI-H2170	0.389	0.357	0.275	0.139	0.116	0.618	0.697	0.271	0.201	0.2	1.07	0.822	0.534	0.25	0.286	0.66	0.55	0.245	0.144	0.151
NCI-H2347	0.415	0.446	0.445	0.418	0.432	0.628	0.73	0.587	0.524	0.565	0.828	0.937	0.657	0.607	0.724	0.568	0.738	0.589	0.725	0.541
NCI-H2405	0.555	0.562	0.57	0.513	0.508	1.2	0.848	0.976	0.953	0.938	0.753	0.86	0.835	0.811	0.819	0.763	0.759	0.839	0.666	0.562
NCI-H3122	0.179	0.184	0.174	0.182	0.187	1.1	1	1.06	0.956	0.944	0.257	0.212	0.208	0.209	0.299	1.07	0.985	0.991	0.883	1.05
PC-3 [JPC-3]	0.484	0.444	0.441	0.362	0.397	0.531	0.339	0.287	0.326	0.328	0.51	0.453	0.447	0.4	0.355	0.52	0.413	0.307	0.353	0.422
PC-14	0.0841	0.0837	0.079	0.0664	0.0642	0.112	0.0624	0.108	0.0886	0.124	0.419	0.275	0.257	0.239	0.242	0.235	0.157	0.139	0.166	0.14
RERF-LC-KJ	1.05	1.02	0.984	0.85	0.825	0.713	0.636	0.544	0.574	0.519	0.921	0.842	0.801	0.731	0.705	1.01	0.827	0.865	0.84	0.778

From the supplement of paper PMC10307832
